These results are taken from PubChem BioAssay AID330 (DTP/NCI, 2004).

Where “and” joins values, the source holds several entries; their conditions need not be identical. Identical values can stand only once. Toxic doses and inconclusive results are not listed.

The test system of the experiment is P388 leukemia ip, CD2F1 mice, survival T/C. Description: NCI In Vivo Anticancer Drug Screen. Data for tumor model P388 Leukemia (intraperitoneal) in CD2F1 (CDF1) mice. The note with it: endpoint: median survival time, higher = longer survival. In short, it runs like this: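 Mice carrying the transplanted tumor received test compound or vehicle. Survival was recorded in each group, and the value is the treated-group measurement divided by that of the vehicle-treated control group.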

The mark [1] stands for this setting: dose: 50.0 mg/kg/injection, schedule: Q01DX005 (ip), vehicle: saline.
Setting [2] is: dose: 100.0 mg/kg/injection, schedule: Q01DX005 (ip), vehicle: saline.
The mark [3] stands for this setting: dose: 200.0 mg/kg/injection, schedule: Q01DX005 (ip), vehicle: saline.
The mark [4] stands for this setting: dose: 25.0 mg/kg/injection, schedule: Q01DX005 (ip), vehicle: saline with Tween-80.

Regarding `N=c1ccn2c(n1)OC1C(OP(=O)(O)O)C(CO)OC12` (configuration not stated), for the setting “dose: 177.0 mg/kg/injection, schedule: Q04DX003 (ip), vehicle: saline with Tween-80”, the T/C is 154 % of control.

As to `CC(C)S(=O)c1ccccc1` (configuration not stated), the T/C was 103 % of control (dose: 50.0 mg/kg/injection, schedule: Q01DX001 (ip), vehicle: saline with Tween-80); 95 % of control (dose: 100.0 mg/kg/injection, schedule: Q01DX001 (ip), vehicle: saline with Tween-80); 95 % of control (dose: 200.0 mg/kg/injection, schedule: Q01DX001 (ip), vehicle: saline with Tween-80).

Turning to `NNC(=O)NN1C(=O)c2cc(S(=O)(=O)O)cc3c(N)c(S(=O)(=O)O)cc(c23)C1=O`, the T/C runs as follows: under setting [1], 98 % of control; under setting [2], 104 % of control; under setting [3], 99 % of control.

For the compound `C=C(CN(C)C)C(=O)c1ccccc1C`, the T/C (dose: 0.78 mg/kg/injection, schedule: Q01DX005 (ip), vehicle: saline) was 102 % of control; the T/C (dose: 1.56 mg/kg/injection, schedule: Q01DX005 (ip), vehicle: saline) is 98 % of control; the T/C (dose: 3.12 mg/kg/injection, schedule: Q01DX005 (ip), vehicle: saline) is 94 % of control; the T/C (dose: 6.25 mg/kg/injection, schedule: Q01DX005 (ip), vehicle: suspension in saline) was 108 % of control.

Take `CSCc1cc(Cl)cc2c1OCOC2`: the T/C is, setting by setting: (dose: 50.0 mg/kg/injection, schedule: Q01DX009 (ip), vehicle: saline with Tween-80) 102 % of control; (dose: 100.0 mg/kg/injection, schedule: Q01DX009 (ip), vehicle: saline with Tween-80) 96 % of control; (dose: 200.0 mg/kg/injection, schedule: Q01DX009 (ip), vehicle: saline with Tween-80) 100 % of control.

Consider `O=C(O)CCCCc1ccc(CCCCC(=O)O)c2ccccc12`, for which the T/C reads like this: (dose: 100.0 mg/kg/injection, schedule: Q04DX003 (ip), vehicle: saline with Tween-80) 103 % of control; (dose: 200.0 mg/kg/injection, schedule: Q04DX003 (ip), vehicle: saline with Tween-80) 102 % of control; (dose: 400.0 mg/kg/injection, schedule: Q04DX003 (ip), vehicle: saline with Tween-80) 99 % of control.

Take `Cc1cc(N=Nc2ccc(NC(=O)c3ccc(N)cc3)cc2C)ccc1N=Nc1ccc2cc(S(=O)(=O)O)cc(S(=O)(=O)O)c2c1`: the T/C by setting is: (dose: 50.0 mg/kg/injection, schedule: Q01DX005 (ip), vehicle: saline with Tween-80) 97 % of control; under setting [1], 107 % of control; (dose: 50.0 mg/kg/injection, schedule: Q01DX005 (ip), vehicle: suspension in saline) 101 % of control; (dose: 100.0 mg/kg/injection, schedule: Q01DX005 (ip), vehicle: saline with Tween-80) 90 % of control; under setting [2], 121 % of control; (dose: 100.0 mg/kg/injection, schedule: Q01DX005 (ip), vehicle: suspension in saline) 111 % of control. For the same compound, the T/C runs as follows: (dose: 200.0 mg/kg/injection, schedule: Q01DX005 (ip), vehicle: saline with Tween-80) 113 % of control; under setting [3], 121 % of control; (dose: 200.0 mg/kg/injection, schedule: Q01DX005 (ip), vehicle: suspension in saline) 113 % of control; (dose: 400.0 mg/kg/injection, schedule: Q01DX005 (ip), vehicle: saline with Tween-80) 109 % of control.

As to `COC(=O)c1nnn(-c2cccc(C(F)(F)F)c2)c1N`, the T/C is 89 % of control (dose: 60.0 mg/kg/injection, schedule: Q01DX005 (ip), vehicle: saline with Tween-80); 90 % of control (dose: 120.0 mg/kg/injection, schedule: Q01DX005 (ip), vehicle: saline with Tween-80); 100 % of control (dose: 240.0 mg/kg/injection, schedule: Q01DX005 (ip), vehicle: saline with Tween-80).

Consider `O=C1C(NCC(O)CO)=C(N2CC2)C(=O)C(NCC(O)CO)=C1N1CC1` (configuration not stated), for which the T/C runs as follows: (dose: 1.5 mg/kg/injection, schedule: Q01DX009 (ip), vehicle: saline) 198 % of control; (dose: 3.0 mg/kg/injection, schedule: Q01DX009 (ip), vehicle: saline) 227 % of control; (dose: 4.0 mg/kg/injection, schedule: Q01DX009 (ip), vehicle: saline) 270 % of control.

As for `CCOP(=Nc1cc(C)ccc1C)(OCC)OCC`, the T/C reads like this: (dose: 12.5 mg/kg/injection, schedule: Q01DX009 (ip), vehicle: Klucel (hydroxypropylcellulose) (HPC)) 100 % of control; (dose: 25.0 mg/kg/injection, schedule: Q01DX009 (ip), vehicle: Klucel (hydroxypropylcellulose) (HPC)) 94 % of control; (dose: 50.0 mg/kg/injection, schedule: Q01DX001 (ip), vehicle: Klucel (hydroxypropylcellulose) (HPC)) 103 % of control; (dose: 50.0 mg/kg/injection, schedule: Q01DX009 (ip), vehicle: Klucel (hydroxypropylcellulose) (HPC)) 103 % of control and 93 % of control; (dose: 100.0 mg/kg/injection, schedule: Q01DX001 (ip), vehicle: Klucel (hydroxypropylcellulose) (HPC)) 100 % of control; (dose: 200.0 mg/kg/injection, schedule: Q01DX001 (ip), vehicle: Klucel (hydroxypropylcellulose) (HPC)) 96 % of control.

Take `CC(=O)C1(O)Cc2c(O)c3c(c(O)c2C(OC2CC(N)C(O)C(C)O2)C1C)C(=O)c1ccccc1C3=O` (configuration not stated): the T/C (dose: 0.6 mg/kg/injection, schedule: Q04DX003 (ip), vehicle: water) was 100 % of control; the T/C (dose: 1.2 mg/kg/injection, schedule: Q04DX003 (ip), vehicle: water) is 108 % of control; the T/C (dose: 2.4 mg/kg/injection, schedule: Q04DX003 (ip), vehicle: water) is 108 % of control; the T/C (dose: 4.8 mg/kg/injection, schedule: Q04DX003 (ip), vehicle: water) is 106 % of control; the T/C (dose: 9.6 mg/kg/injection, schedule: Q04DX003 (ip), vehicle: water) is 118 % of control.

Regarding `CC(C)NC(=O)OCc1c(COC(=O)NC(C)C)c2n(c1Br)CCC2`, the T/C under setting [4] was 186 % of control.

With `Cc1cc(NC(=O)C(=O)CC(=O)c2ccc(Cl)s2)no1`, the T/C is, setting by setting: (dose: 100.0 mg/kg/injection, schedule: Q04DX002 (ip), vehicle: saline with Tween-80) 99 % of control; (dose: 200.0 mg/kg/injection, schedule: Q04DX002 (ip), vehicle: saline with Tween-80) 104 % of control; (dose: 400.0 mg/kg/injection, schedule: Q04DX002 (ip), vehicle: saline with Tween-80) 107 % of control.

As for `CC1SC2(C(=O)Nc3ccccc32)N(c2ccc(O)cc2)C1=O` (configuration not stated), the T/C reads like this: (dose: 60.0 mg/kg/injection, schedule: Q01DX005 (ip), vehicle: Klucel (hydroxypropylcellulose) (HPC)) 91 % of control; (dose: 120.0 mg/kg/injection, schedule: Q01DX005 (ip), vehicle: Klucel (hydroxypropylcellulose) (HPC)) 100 % of control; (dose: 240.0 mg/kg/injection, schedule: Q01DX005 (ip), vehicle: Klucel (hydroxypropylcellulose) (HPC)) 94 % of control.

Turning to `O=P(N1CC=CCC1)(N1CC1)N1CC1`, the T/C was 118 % of control (dose: 4.4 mg/kg/injection, schedule: Q04DX003 (ip), vehicle: saline); 154 % of control (dose: 5.56 mg/kg/injection, schedule: Q01DX009 (ip), vehicle: saline); 113 % of control (dose: 6.6 mg/kg/injection, schedule: Q04DX003 (ip), vehicle: saline); 209 % of control (dose: 8.33 mg/kg/injection, schedule: Q01DX009 (ip), vehicle: saline); 118 % of control (dose: 10.0 mg/kg/injection, schedule: Q04DX003 (ip), vehicle: saline).

For `COc1cccc2c1C(=O)c1c(O)c3c(c(O)c1C2=O)C[C@@](O)(C(C)=O)CC3OC1CC(NC(=O)CCCN)C(O)C(C)O1` (some centres not stated), the T/C reads like this: (dose: 6.25 mg/kg/injection, schedule: Q04DX003 (ip), vehicle: saline) 98 % of control; (dose: 12.5 mg/kg/injection, schedule: Q04DX003 (ip), vehicle: saline) 97 % of control; (dose: 25.0 mg/kg/injection, schedule: Q04DX003 (ip), vehicle: saline) 100 % of control; (dose: 50.0 mg/kg/injection, schedule: Q04DX003 (ip), vehicle: saline) 104 % of control.

Regarding `C/C(=N\NC(=S)N1CCCC1)c1cnccn1`, the T/C is 100 % of control (dose: 6.25 mg/kg/injection, schedule: Q01DX005 (ip), vehicle: saline with Tween-80); 103 % of control (dose: 12.5 mg/kg/injection, schedule: Q01DX005 (ip), vehicle: saline with Tween-80); 100 % of control under setting [4].

On to `CCCCn1c(CCC)nc([N+](=O)[O-])c1Sc1ncn[nH]1`, for which the T/C by setting is: (dose: 25.0 mg/kg/injection, schedule: Q01DX005 (ip), vehicle: Klucel (hydroxypropylcellulose) (HPC)) 98 % of control; (dose: 50.0 mg/kg/injection, schedule: Q01DX005 (ip), vehicle: Klucel (hydroxypropylcellulose) (HPC)) 117 % of control and 118 % of control; (dose: 100.0 mg/kg/injection, schedule: Q01DX005 (ip), vehicle: Klucel (hydroxypropylcellulose) (HPC)) 114 % of control; (dose: 200.0 mg/kg/injection, schedule: Q01DX005 (ip), vehicle: Klucel (hydroxypropylcellulose) (HPC)) 122 % of control and 123 % of control.
